Numbers after ± are expanded uncertainties.
What was measured:
[1] = 298.2 K; for surface tension liquid-gas: Pendant drop shape; for mass density: 101.33 kPa, Liquid, Vibrating tube method
[2] = xn = mol fraction of the nth substance listed; conditions: 298.2 K; for surface tension liquid-gas: Pendant drop shape; for mass density: 101.33 kPa, Liquid, Vibrating tube method

Compound: CCCC[n+]1ccn(C)c1.O=S(=O)([N-]S(=O)(=O)C(F)(F)F)C(F)(F)F
- surface tension liquid-gas [1]: 33.15 ± 1.1 mN/m
- mass density [1]: 1436.9 ± 2.1 kg/m3

Compound: CCCCn1cc[n+](C)c1C.O=S(=O)([N-]S(=O)(=O)C(F)(F)F)C(F)(F)F
- surface tension liquid-gas [1]: 34.5 ± 1.1 mN/m
- mass density [1]: 1421.2 ± 2.1 kg/m3

Compound: CCC[N+]1(C)CCCC1.O=S(=O)([N-]S(=O)(=O)C(F)(F)F)C(F)(F)F
- surface tension liquid-gas [1]: 35.35 ± 1.1 mN/m
- mass density [1]: 1431.7 ± 2.1 kg/m3

Compound: CCC[N+]1(C)CCCCC1.O=S(=O)([N-]S(=O)(=O)C(F)(F)F)C(F)(F)F
- surface tension liquid-gas [1]: 35.17 ± 1.1 mN/m
- mass density [1]: 1411.4 ± 2.1 kg/m3

Compound: CCC[n+]1cccc(C)c1.O=S(=O)([N-]S(=O)(=O)C(F)(F)F)C(F)(F)F
- surface tension liquid-gas [1]: 35.02 ± 1.1 mN/m
- mass density [1]: 1449.7 ± 2.1 kg/m3

Compound: CCCCn1cc[n+](C)c1C.O=S(=O)([N-]S(=O)(=O)C(F)(F)F)C(F)(F)F + CCCC[n+]1ccn(C)c1.O=S(=O)([N-]S(=O)(=O)C(F)(F)F)C(F)(F)F
- surface tension liquid-gas ([2]; x1 = 0.2193): 33.38 ± 1.1 mN/m
- surface tension liquid-gas ([2]; x1 = 0.3981): 33.59 ± 1.1 mN/m
- surface tension liquid-gas ([2]; x1 = 0.4962): 33.72 ± 1.1 mN/m
- surface tension liquid-gas ([2]; x1 = 0.5995): 33.87 ± 1.1 mN/m
- surface tension liquid-gas ([2]; x1 = 0.7896): 34.16 ± 1.1 mN/m
- surface tension liquid-gas ([2]; x1 = 1): 34.5 ± 1.1 mN/m
- mass density ([2]; x1 = 0.2193): 1433.8 ± 2.1 kg/m3
- mass density ([2]; x1 = 0.3981): 1431.2 ± 2.1 kg/m3
- mass density ([2]; x1 = 0.4962): 1429.6 ± 2.1 kg/m3
- mass density ([2]; x1 = 0.5995): 1428 ± 2.1 kg/m3
- mass density ([2]; x1 = 0.7896): 1424.9 ± 2.1 kg/m3
- mass density ([2]; x1 = 1): 1421.2 ± 2.1 kg/m3

Compound: CCC[N+]1(C)CCCC1.O=S(=O)([N-]S(=O)(=O)C(F)(F)F)C(F)(F)F + CCCC[n+]1ccn(C)c1.O=S(=O)([N-]S(=O)(=O)C(F)(F)F)C(F)(F)F
- surface tension liquid-gas ([2]; x1 = 0.2094): 33.63 ± 1.1 mN/m
- surface tension liquid-gas ([2]; x1 = 0.3935): 34.04 ± 1.1 mN/m
- surface tension liquid-gas ([2]; x1 = 0.5004): 34.27 ± 1.1 mN/m
- surface tension liquid-gas ([2]; x1 = 0.5943): 34.48 ± 1.1 mN/m
- surface tension liquid-gas ([2]; x1 = 0.7854): 34.89 ± 1.1 mN/m
- surface tension liquid-gas ([2]; x1 = 1): 35.35 ± 1.1 mN/m
- mass density ([2]; x1 = 0.2094): 1436.9 ± 2.1 kg/m3
- mass density ([2]; x1 = 0.3935): 1436.4 ± 2.1 kg/m3
- mass density ([2]; x1 = 0.5004): 1435.9 ± 2.1 kg/m3
- mass density ([2]; x1 = 0.5943): 1435.4 ± 2.1 kg/m3
- mass density ([2]; x1 = 0.7854): 1433.9 ± 2.1 kg/m3
- mass density ([2]; x1 = 1): 1431.7 ± 2.1 kg/m3

Compound: CCC[N+]1(C)CCCCC1.O=S(=O)([N-]S(=O)(=O)C(F)(F)F)C(F)(F)F + CCCC[n+]1ccn(C)c1.O=S(=O)([N-]S(=O)(=O)C(F)(F)F)C(F)(F)F
- surface tension liquid-gas ([2]; x1 = 0.2156): 33.53 ± 1.1 mN/m
- surface tension liquid-gas ([2]; x1 = 0.4069): 33.9 ± 1.1 mN/m
- surface tension liquid-gas ([2]; x1 = 0.4988): 34.08 ± 1.1 mN/m
- surface tension liquid-gas ([2]; x1 = 0.5955): 34.28 ± 1.1 mN/m
- surface tension liquid-gas ([2]; x1 = 0.7958): 34.71 ± 1.1 mN/m
- surface tension liquid-gas ([2]; x1 = 1): 35.17 ± 1.1 mN/m
- mass density ([2]; x1 = 0.2156): 1432.9 ± 2.1 kg/m3
- mass density ([2]; x1 = 0.4069): 1428.5 ± 2.1 kg/m3
- mass density ([2]; x1 = 0.4988): 1426.2 ± 2.1 kg/m3
- mass density ([2]; x1 = 0.5955): 1423.7 ± 2.1 kg/m3
- mass density ([2]; x1 = 0.7958): 1417.9 ± 2.1 kg/m3
- mass density ([2]; x1 = 1): 1411.4 ± 2.1 kg/m3

Compound: CCC[n+]1cccc(C)c1.O=S(=O)([N-]S(=O)(=O)C(F)(F)F)C(F)(F)F + CCCC[n+]1ccn(C)c1.O=S(=O)([N-]S(=O)(=O)C(F)(F)F)C(F)(F)F
- surface tension liquid-gas ([2]; x1 = 0.2093): 33.42 ± 1.1 mN/m
- surface tension liquid-gas ([2]; x1 = 0.3996): 33.73 ± 1.1 mN/m
- surface tension liquid-gas ([2]; x1 = 0.4995): 33.91 ± 1.1 mN/m
- surface tension liquid-gas ([2]; x1 = 0.6047): 34.12 ± 1.1 mN/m
- surface tension liquid-gas ([2]; x1 = 0.8024): 34.55 ± 1.1 mN/m
- surface tension liquid-gas ([2]; x1 = 1): 35.02 ± 1.1 mN/m
- mass density ([2]; x1 = 0.2093): 1440.2 ± 2.1 kg/m3
- mass density ([2]; x1 = 0.3996): 1442.9 ± 2.1 kg/m3
- mass density ([2]; x1 = 0.4995): 1444.2 ± 2.1 kg/m3
- mass density ([2]; x1 = 0.6047): 1445.5 ± 2.1 kg/m3
- mass density ([2]; x1 = 0.8024): 1447.7 ± 2.1 kg/m3
- mass density ([2]; x1 = 1): 1449.7 ± 2.1 kg/m3

Compound: CCCC[n+]1ccn(C)c1.O=S(=O)([N-]S(=O)(=O)C(F)(F)F)C(F)(F)F + CCCCn1cc[n+](C)c1C.O=S(=O)([N-]S(=O)(=O)C(F)(F)F)C(F)(F)F
- surface tension liquid-gas ([2]; x2 = 0): 33.15 ± 1.1 mN/m
- mass density ([2]; x2 = 0): 1436.9 ± 2.1 kg/m3

Compound: CCCC[n+]1ccn(C)c1.O=S(=O)([N-]S(=O)(=O)C(F)(F)F)C(F)(F)F + CCC[N+]1(C)CCCC1.O=S(=O)([N-]S(=O)(=O)C(F)(F)F)C(F)(F)F
- surface tension liquid-gas ([2]; x2 = 0): 33.15 ± 1.1 mN/m
- mass density ([2]; x2 = 0): 1436.9 ± 2.1 kg/m3

Compound: CCCC[n+]1ccn(C)c1.O=S(=O)([N-]S(=O)(=O)C(F)(F)F)C(F)(F)F + CCC[N+]1(C)CCCCC1.O=S(=O)([N-]S(=O)(=O)C(F)(F)F)C(F)(F)F
- surface tension liquid-gas ([2]; x2 = 0): 33.15 ± 1.1 mN/m
- mass density ([2]; x2 = 0): 1436.9 ± 2.1 kg/m3

Compound: CCCC[n+]1ccn(C)c1.O=S(=O)([N-]S(=O)(=O)C(F)(F)F)C(F)(F)F + CCC[n+]1cccc(C)c1.O=S(=O)([N-]S(=O)(=O)C(F)(F)F)C(F)(F)F
- surface tension liquid-gas ([2]; x2 = 0): 33.15 ± 1.1 mN/m
- mass density ([2]; x2 = 0): 1436.9 ± 2.1 kg/m3
